In data set [1] the test system is Salmonella typhimurium. Kind of data set: Ames test averaged in revertants/plate with Salmonella Typhimurium TA98 at 0.50 mg/plate. The format is functional, Salmonella enterica subsp. enterica serovar Typhimurium. For orientation: In the Ames test, an excess of revertant colonies over the control signals mutagenicity.
Data set [2] concerns Salmonella typhimurium. The experiment in a line: Ames test averaged in revertants/plate with Salmonella Typhimurium TA1538 at 0.25 mg/plate. The format is functional, Salmonella enterica subsp. enterica serovar Typhimurium.
Data set [3] relates to Salmonella typhimurium. The experiment in a line: Ames test averaged in revertants/plate with Salmonella Typhimurium TA1538 at 0.50 mg/plate. In kind it is functional, Salmonella enterica subsp. enterica serovar Typhimurium.
Data set [4] relates to Salmonella typhimurium. The experiment in a line: Ames test averaged in revertants/plate with Salmonella Typhimurium TA98 at 0.13 mg/plate. The format is functional, Salmonella enterica subsp. enterica serovar Typhimurium.
Data set [5] deals with Salmonella typhimurium. Kind of data set: Ames test averaged in revertants/plate with Salmonella Typhimurium TA98 at 1.0 mg/plate. In kind it is functional, Salmonella enterica subsp. enterica serovar Typhimurium.
For data set [6], the system named is Salmonella typhimurium. The experiment in a line: Ames test averaged in revertants/plate with Salmonella Typhimurium TA1538 at 1.0 mg/plate. The format is functional, Salmonella enterica subsp. enterica serovar Typhimurium.
The subject of data set [7] is Salmonella typhimurium. The experiment in a line: Ames test averaged in reverts/plate with Salmonella Typhimurium TA1538 at 0.13 mg/plate. The format is functional, Salmonella enterica subsp. enterica serovar Typhimurium.
Data set [8] relates to Salmonella typhimurium. The experiment in a line: Ames test averaged in revertants/plate with Salmonella Typhimurium TA98 at 0.25 mg/plate. The format is functional, Salmonella enterica subsp. enterica serovar Typhimurium.
Data set [9] relates to Salmonella typhimurium. Kind of data set: Ames test averaged in revertants/plate with Salmonella Typhimurium TA1538 at 0.13 mg/plate. In kind it is functional, Salmonella enterica subsp. enterica serovar Typhimurium.
Data set [10] in a line: Partition coefficient (logP). Conditions: octanol/water. The format is physicochemical.
Data set [11] has as its system Salmonella typhimurium. Kind of data set: Ames test averaged in revertants/plate with Salmonella Typhimurium TA1538 at 2.5 mg/plate. The format is functional, Salmonella enterica subsp. enterica serovar Typhimurium.
Data set [12] concerns Salmonella typhimurium. Kind of data set: Ames test averaged in revertants/plate with Salmonella Typhimurium TA98 at 0.1 mg/plate. The format is functional, Salmonella enterica subsp. enterica serovar Typhimurium.
Data set [13] relates to Salmonella typhimurium. The experiment in a line: Ames test averaged in revertants/plate with Salmonella Typhimurium TA98 at 5 mg/plate. In kind it is functional, Salmonella enterica subsp. enterica serovar Typhimurium.
Data set [14] concerns Salmonella typhimurium. Kind of data set: Ames test averaged in revertants/plate with Salmonella Typhimurium TA98 at 0.5 mg/plate. In kind it is functional, Salmonella enterica subsp. enterica serovar Typhimurium.
The test system of data set [15] is Salmonella typhimurium. The experiment in a line: Ames test averaged in revertants/plate with Salmonella Typhimurium TA98 at 2.5 mg/plate. The format is functional, Salmonella enterica subsp. enterica serovar Typhimurium.
The test system of data set [16] is Salmonella typhimurium. Kind of data set: Ames test averaged in revertants/plate with Salmonella Typhimurium TA1538 at 5 mg/plate. In kind it is functional, Salmonella enterica subsp. enterica serovar Typhimurium.
Data set [17] has as its system Salmonella typhimurium. Kind of data set: Ames test averaged in revertants/plate with Salmonella Typhimurium TA1538 at 0.5 mg/plate. In kind it is functional, Salmonella enterica subsp. enterica serovar Typhimurium.
In data set [18] the test system is Salmonella typhimurium. Kind of data set: Ames test averaged in revertants/plate with Salmonella Typhimurium TA1538 at 0.1 mg/plate. The format is functional, Salmonella enterica subsp. enterica serovar Typhimurium.

The values that follow come from ChEMBL document CHEMBL1121482, “Prevention of Ames test mutagenicity by chemical modification in a series of monoamine oxidase inhibitors” (J Med Chem, 1980).

As a reminder, the logP is the decadic logarithm of the partition coefficient of the neutral form, usually between octanol and water. Lower therefore signals a more hydrophilic compound.

Regarding `CC(=O)Nc1ccc2c(c1)S(=O)(=O)c1ccccc1-2`, the Revertants/plate in the data set with Salmonella typhimurium [1] came to 2; in the data set with Salmonella typhimurium [2] it was 0; with Salmonella typhimurium [3], 2; in the data set with Salmonella typhimurium [4] it was 0; in the data set with Salmonella typhimurium [5], 4; in the data set with Salmonella typhimurium [6], 2. Besides, the Revertants/plate in the data set with Salmonella typhimurium [7] and with Salmonella typhimurium [8] was 0 each time.

As for `CC(=O)Nc1ccc2c(c1)S(=O)(=O)c1ccc(C)cc1C2=O`, the Revertants/plate came to 0 in the data set with Salmonella typhimurium [1]; 2 in the data set with Salmonella typhimurium [2]; 0 with Salmonella typhimurium [3]; 0 in the data set on Salmonella typhimurium [9]; 1 in the data set on Salmonella typhimurium [4]; 8 in the data set with Salmonella typhimurium [5]. The Revertants/plate stood at 5 in the data set on Salmonella typhimurium [6] and 0 in the data set on Salmonella typhimurium [8]. This compound also displayed a logP in [10] of 2.76.

For the compound `CC(=O)Nc1ccc2c(c1)[nH]c1ccccc12`, the Revertants/plate with Salmonella typhimurium [1] turned out to be 468; in the data set with Salmonella typhimurium [2], 762; in the data set on Salmonella typhimurium [3], 699; in the data set with Salmonella typhimurium [9], 679; with Salmonella typhimurium [4] it was 725; in the data set with Salmonella typhimurium [5], 456. The results for the Revertants/plate in the data set with Salmonella typhimurium [6] and in the data set on Salmonella typhimurium [8] were 775 and 732, respectively. In data set [10], this compound yielded a logP of 3.02.

For the compound `CCc1ccc2c(c1)C(=O)c1ccc(NC(C)=O)cc1S2(=O)=O`, the Revertants/plate in the data set with Salmonella typhimurium [1] came out at 0; in the data set on Salmonella typhimurium [2], 0; in the data set on Salmonella typhimurium [3] it was 1; in the data set on Salmonella typhimurium [9], 1; with Salmonella typhimurium [4], 0; in the data set with Salmonella typhimurium [5], 0. Besides, the values for the Revertants/plate in the data set on Salmonella typhimurium [6] and with Salmonella typhimurium [8] were 2 and 0, respectively. For the same compound, the logP in [10] is 3.44.

On to `CC(=O)Nc1ccc2c(c1)S(=O)(=O)c1ccccc1C2=O`, for which the Revertants/plate with Salmonella typhimurium [11], in the data set with Salmonella typhimurium [12], in the data set on Salmonella typhimurium [13], in the data set on Salmonella typhimurium [14], with Salmonella typhimurium [15] and in the data set with Salmonella typhimurium [16] was 0 throughout. Further, the Revertants/plate in the data set on Salmonella typhimurium [17] and with Salmonella typhimurium [18] was 0 each time. The logP in data set [10] turned out to be 2.35.

On to `CCCc1ccc2c(c1)C(=O)c1ccc(NC(C)=O)cc1S2(=O)=O`, for which the Revertants/plate with Salmonella typhimurium [1], with Salmonella typhimurium [2], with Salmonella typhimurium [3], with Salmonella typhimurium [9], in the data set with Salmonella typhimurium [4] and in the data set with Salmonella typhimurium [5] was 0 in each case. Moreover, the Revertants/plate with Salmonella typhimurium [6] and in the data set on Salmonella typhimurium [8] was 0 in each case. This compound showed a logP in [10] of 3.51.
